From paper PMC9379910, “Chimeric Ligands of Pili and Lectin A Inhibit Tolerance, Persistence, and Virulence Factors of Pseudomonas aeruginosa over a Wide Range of Phenotypes” (ACS Infectious Diseases, 2022)

Legend:
LecA [1] = biological target: T1, LecA (Pseudomonas aeruginosa, UniProt Q05097); assay: competitive fluorescence polarization (displacement of βGal-aryl-Dansyl from […] LecA); also motility-enabled binding assay
LecA [2] = biological target: T1, LecA; assay: competitive fluorescence polarization (displacement of βGal-aryl-Dansyl from […] LecA); type: binding
LecA [3] = biological target: T1, LecA; assay: direct fluorescence polarization titration with LecA ([…]); type: binding

T1 sequence (Q05097 2-122): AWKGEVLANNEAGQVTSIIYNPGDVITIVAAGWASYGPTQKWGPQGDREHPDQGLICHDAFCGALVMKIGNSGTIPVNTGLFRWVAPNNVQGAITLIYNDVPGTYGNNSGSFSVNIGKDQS

CCCCCCCC(C)CC(C)CCO[C@@H]1O[C@H](CO)[C@@H](O[C@H]2O[C@H](CO)[C@@H](O)[C@H](O)[C@H]2O)[C@H](O)[C@H]1O (stereo partly drawn) [1a, 3,5-diMeDβM]
IC50 (LecA [1]): 15 µM

CCCCCCCC(C)CC(C)CCO[C@@H]1O[C@H](CO)[C@@H](O[C@@H]2O[C@H](CO)[C@@H](O)[C@H](O)[C@H]2O)[C@H](O)[C@H]1O (stereo partly drawn) [1b, 3,5-diMeDβC]
IC50 (LecA [2]): 13 µM

CN(C)c1cccc2c(S(=O)(=O)Nc3ccc(O[C@@H]4O[C@H](CO)[C@H](O)[C@H](O)[C@H]4O)cc3)cccc12 [βGal-aryl-Dansyl]
Kd (LecA [3]): ~10.7 µM
